The record followed here is patent US12721844B2, “Chronic kidney disease treatment or prevention method” (Japan Tobacco Inc., priority 2019, dated 2026).

Molecules are shown by their SMILES. Several values for one entry are separate records, joined by “and”; a condition that tells them apart may be missing. Equal values may be shown once.

Format in all cases: cell-based
Data set [1] has as its system Salmonella typhimurium TA98. In words: Ames test (reverse mutation test), TA98. As to conditions: with S9 mix. The text has this: (§1) Ames Test (Reverse Mutation Test)
(§2) Two plates per treatment were used.

For data set [2], the system named is Salmonella typhimurium TA1535. In words: Ames test (reverse mutation test), TA1535.
Description: as §1, §2
(In general: In the Ames test, an excess of revertant colonies over the control signals mutagenicity.)

For data set [3], the system named is Salmonella typhimurium TA1537. Briefly: Ames test (reverse mutation test), TA1537.
Description: as §1, §2

Data set [4] has as its system Escherichia coli WP2 uvrA. Briefly: Ames test (reverse mutation test), WP2 uvrA. As to conditions: for Number of revertant colonies WP2uvrA: S9 Mix −.
Description: as §1, §2

The subject of data set [5] is Salmonella typhimurium TA100. In words: Ames test (reverse mutation test), TA100. The settings on record: with S9 mix.
Description: as §1, §2

Setting [6] is: with S9 mix, dose 1667 μg/plate.
Where [7] appears, read: with S9 mix, dose 5000 μg/plate.

Regarding `CC(C)(OCc1cc(F)cc(-c2cc(N)nn2-c2ccc(F)cc2)c1)C(F)(F)F` [Metabolite D], the “potential to induce reverse mutations, TA98” value (“potential … TA98” below) in data set [1] was “showed potential to induce reverse mutations”. Besides, the “Number of revertant colonies TA1535” value is 10 in data set [2] (S9 Mix +, 2.3 μg/plate); 15 in data set [2] (S9 Mix +, 6.9 μg/plate); 14 in data set [2] (S9 Mix +, 21 μg/plate); 11 in data set [2] (S9 Mix +, 62 μg/plate); 9 in data set [2] (S9 Mix +, 185 μg/plate); 7 in data set [2] (S9 Mix +, 556 μg/plate). The “Number of revertant colonies TA1535” value in data set [2] (S9 Mix +, 1667 μg/plate) came to 7; in data set [2] (S9 Mix +, 5000 μg/plate), 3; in data set [2] (S9 Mix −, 2.3 μg/plate), 20; in data set [2] (S9 Mix −, 6.9 μg/plate) it was 21; in data set [2] (S9 Mix −, 21 μg/plate) it was 11; in data set [2] (S9 Mix −, 62 μg/plate) it was 6. Moreover, the “Number of revertant colonies TA1535” value in data set [2] (S9 Mix −, 185 μg/plate) worked out at 9; in data set [2] (S9 Mix −, 556 μg/plate) it was 5; in data set [2] (S9 Mix −, 1667 μg/plate), 6; in data set [2] (S9 Mix −, 5000 μg/plate), 7. For the same molecule, the “potential to induce reverse mutations, TA1537” value (from here on “potential … TA1537”) in data set [3] (with S9 mix) is on record as “showed potential to induce reverse mutations”.

Take `Cc1ccc(-n2nc(N)cc2-c2cccc(OCC(F)(F)F)c2)cc1` [Metabolite F]: the “potential … TA98” value in data set [1] is listed as “showed potential to induce reverse mutations”. The “Number of revertant colonies TA1535” value turned out to be 22 in data set [2] (S9 Mix +, 2.3 μg/plate); 21 in data set [2] (S9 Mix +, 6.9 μg/plate); 20 in data set [2] (S9 Mix +, 21 μg/plate); 23 in data set [2] (S9 Mix +, 62 μg/plate); 13 in data set [2] (S9 Mix +, 185 μg/plate); 7 in data set [2] (S9 Mix +, 556 μg/plate). In addition, the “Number of revertant colonies TA1535” value in data set [2] (S9 Mix +, 1667 μg/plate) came out at 0; in data set [2] (S9 Mix +, 5000 μg/plate) it was 0; in data set [2] (S9 Mix −, 2.3 μg/plate) it was 17; in data set [2] (S9 Mix −, 6.9 μg/plate), 13; in data set [2] (S9 Mix −, 21 μg/plate) it was 19; in data set [2] (S9 Mix −, 62 μg/plate) it was 11. For the same molecule, the “Number of revertant colonies TA1535” value in data set [2] (S9 Mix −, 185 μg/plate) was 3; in data set [2] (S9 Mix −, 556 μg/plate) it was 0; in data set [2] (S9 Mix −, 1667 μg/plate) it was 0; in data set [2] (S9 Mix −, 5000 μg/plate), 0. In addition, in data set [4] (without S9 mix), the “potential to induce reverse mutations, WP2 uvrA” value is reported as “showed potential to induce reverse mutations”. For the same molecule, the “potential to induce reverse mutations, TA100” value (“potential … TA100” for short) in data set [5] is reported as “showed potential to induce reverse mutations”. In addition, the “potential … TA1537” value in data set [3] (with S9 mix) was “showed potential to induce reverse mutations”.

With `Cl.Nc1c2ccccc2nc2ccccc12.O` [Example 9AA, 9-Aminoacridine hydrochloride monohydrate, reference compound], in data set [3] (without S9 mix, dose 80 μg/plate (positive control)), the “Number of revertant colonies TA1537” value is given as 372.

`CC(C)(C)Oc1cccc(-c2cc(N)nn2-c2ccccc2)c1` [Metabolite C]: in data set [1], the “potential … TA98” value is listed as “showed potential to induce reverse mutations”. The “Number of revertant colonies TA1535” value came out at 6 in data set [2] (S9 Mix −, 2.3 μg/plate); 5 in data set [2] (S9 Mix −, 6.9 μg/plate); 6 in data set [2] (S9 Mix −, 21 μg/plate); 3 in data set [2] (S9 Mix −, 62 μg/plate); 4 in data set [2] (S9 Mix −, 185 μg/plate); 0 in data set [2] (S9 Mix −, 556 μg/plate). For the same molecule, the “Number of revertant colonies TA1535” value is 1 in data set [2] (S9 Mix −, 1667 μg/plate); 0 in data set [2] (S9 Mix −, 5000 μg/plate); 8 in data set [2] (with S9 mix, dose 2.3 μg/plate); 8 in data set [2] (with S9 mix, dose 6.9 μg/plate); 5 in data set [2] (with S9 mix, dose 21 μg/plate); 4 in data set [2] (with S9 mix, dose 62 μg/plate). The “Number of revertant colonies TA1535” value came to 5 in data set [2] (with S9 mix, dose 185 μg/plate); 4 in data set [2] (with S9 mix, dose 556 μg/plate); 5 in data set [2] (setting [6]); 4 in data set [2] (setting [7]). Besides, the “potential … TA100” value in data set [5] is “showed potential to induce reverse mutations”. In addition, the “Number of revertant colonies TA1537” value was found to be 6 in data set [3] (with S9 mix, dose 2.3 μg/plate); 7 in data set [3] (with S9 mix, dose 6.9 μg/plate); 7 in data set [3] (with S9 mix, dose 21 μg/plate); 9 in data set [3] (with S9 mix, dose 62 μg/plate); 9 in data set [3] (with S9 mix, dose 185 μg/plate); 4 in data set [3] (with S9 mix, dose 556 μg/plate). Besides, the “Number of revertant colonies TA1537” value in data set [3] (setting [6]) is on record as 4; in data set [3] (setting [7]), 5.

For `NC(=O)C(=Cc1ccc([N+](=O)[O-])o1)c1ccco1` [AF-2, 2-(2-Furyl)-3-(5-nitro-2-furyl)acrylamide, reference compound], the “Number of revertant colonies WP2uvrA” value in data set [4] (0.01 μg/plate) was 74 and 89 and 100 and 87 and 79.

Regarding `Nc1ccc2cc3ccccc3cc2c1` [Example 2AA, 2-Aminoanthracene, reference compound], in data set [1] (dose 0.5 μg/plate (positive control)), the “Number of revertant colonies TA98” value worked out at 289. Further, the “Number of revertant colonies TA1535” value is 332 and 308 and 331 and 261 and 349 in data set [2] (S9 Mix +, 2.0 μg/plate); 223 and 146 and 250 in data set [2] (with S9 mix, dose 2.0 (2) μg/plate (positive control)). Moreover, the “Number of revertant colonies TA1537” value in data set [3] (with S9 mix, dose 2 μg/plate (positive control)) stood at 135.

Consider `Nc1cc(-c2cccc(OC(F)(F)F)c2)n(-c2cccc(F)c2)n1` [Metabolite G], for which the “Number of revertant colonies TA1535” value in data set [2] (S9 Mix +, 2.3 μg/plate) worked out at 12; in data set [2] (S9 Mix +, 6.9 μg/plate), 14; in data set [2] (S9 Mix +, 21 μg/plate), 11; in data set [2] (S9 Mix +, 62 μg/plate), 8; in data set [2] (S9 Mix +, 185 μg/plate), 5; in data set [2] (S9 Mix +, 556 μg/plate) it was 5. The “Number of revertant colonies TA1535” value stood at 4 in data set [2] (S9 Mix +, 1667 μg/plate); 4 in data set [2] (S9 Mix +, 5000 μg/plate); 15 in data set [2] (S9 Mix −, 2.3 μg/plate); 16 in data set [2] (S9 Mix −, 6.9 μg/plate); 21 in data set [2] (S9 Mix −, 21 μg/plate); 9 in data set [2] (S9 Mix −, 62 μg/plate). Further, the “Number of revertant colonies TA1535” value in data set [2] (S9 Mix −, 185 μg/plate) turned out to be 9; in data set [2] (S9 Mix −, 556 μg/plate), 0; in data set [2] (S9 Mix −, 1667 μg/plate), 0; in data set [2] (S9 Mix −, 5000 μg/plate) it was 0. The “potential to induce reverse mutations, TA1535” value in data set [2] (without S9 mix) was “showed potential to induce reverse mutations”. Moreover, the “Number of revertant colonies WP2uvrA” value in data set [4] (2.3 μg/plate) was determined as 26; in data set [4] (6.9 μg/plate), 23; in data set [4] (21 μg/plate), 16; in data set [4] (62 μg/plate), 14; in data set [4] (185 μg/plate), 15; in data set [4] (556 μg/plate), 10. Besides, the “Number of revertant colonies WP2uvrA” value in data set [4] (1667 μg/plate) turned out to be 17; in data set [4] (5000 μg/plate) it was 6. Moreover, in data set [5], the “potential … TA100” value is “showed potential to induce reverse mutations”.

For `Cc1cccc(-n2nc(N)cc2-c2cccc(OC(F)(F)F)c2)c1` [Metabolite H], the “potential … TA98” value in data set [1] is reported as “showed potential to induce reverse mutations”. Besides, the “Number of revertant colonies TA1535” value in data set [2] (S9 Mix +, 2.3 μg/plate) was 11; in data set [2] (S9 Mix +, 6.9 μg/plate) it was 14; in data set [2] (S9 Mix +, 21 μg/plate) it was 19; in data set [2] (S9 Mix +, 62 μg/plate) it was 15; in data set [2] (S9 Mix +, 185 μg/plate), 13; in data set [2] (S9 Mix +, 556 μg/plate) it was 6. Further, the “Number of revertant colonies TA1535” value in data set [2] (S9 Mix +, 1667 μg/plate) came to 3; in data set [2] (S9 Mix +, 5000 μg/plate), 3; in data set [2] (S9 Mix −, 2.3 μg/plate), 12; in data set [2] (S9 Mix −, 6.9 μg/plate), 17; in data set [2] (S9 Mix −, 21 μg/plate), 18; in data set [2] (S9 Mix −, 62 μg/plate) it was 14. In addition, the “Number of revertant colonies TA1535” value was 14 in data set [2] (S9 Mix −, 185 μg/plate); 6 in data set [2] (S9 Mix −, 556 μg/plate); 6 in data set [2] (S9 Mix −, 1667 μg/plate); 4 in data set [2] (S9 Mix −, 5000 μg/plate). Besides, in data set [5], the “potential … TA100” value is “showed potential to induce reverse mutations”. Also, in data set [3] (with S9 mix), the “potential … TA1537” value is on record as “showed potential to induce reverse mutations”.
